Source: PubChem BioAssay (NCI)
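Compound exposure: 48 hours, 5 concentrations, 96-well plates. GI50 = concentration required for 50% inhibition of growth. TGI: concentration producing complete growth inhibition.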

Legend:
Assay in all cases: NCI tumour cell line growth inhibition, 48 h
[1] = system: HL-60(TB) leukemia
[2] = system: DU-145 prostate
[3] = system: OVCAR-8 ovarian
[4] = system: LOX IMVI melanoma
[5] = system: HS 578T breast
[6] = system: T-47D breast
[7] = system: SW-620 colon
[8] = system: SN12C renal
[9] = system: OVCAR-5 ovarian
[10] = system: M14 melanoma
[11] = system: PC-3 prostate
[12] = system: MOLT-4 leukemia
[13] = system: A498 renal
[14] = system: UACC-62 melanoma
[15] = system: HOP-92 NSCLC
[16] = system: MDA-MB-231 breast
[17] = system: SR leukemia
[18] = system: SF-539 CNS
[19] = system: HCT-116 colon
[20] = system: SNB-75 CNS
[21] = system: KM12 colon
[22] = system: MALME-3M melanoma
[23] = system: NCI-H23 lung
[24] = system: NCI-H226 lung
[25] = system: NCI-H460 lung
[26] = system: 786-0 renal
[27] = system: SNB-19 CNS

CCCOc1nc(SCCC)nc2c1cnn2-c1ccccc1
TGI [1]: > 100 µM
GI50 [2]: > 100 µM
TGI [2]: > 100 µM
GI50 [3]: > 100 µM
TGI [3]: > 100 µM
GI50 [4]: > 100 µM
TGI [4]: > 100 µM
GI50 [5]: > 100 µM
TGI [5]: > 100 µM
GI50 [6]: > 100 µM
TGI [6]: > 100 µM
GI50 [7]: > 100 µM
TGI [7]: > 100 µM
GI50 [8]: > 100 µM
TGI [8]: > 100 µM
GI50 [9]: > 100 µM
TGI [9]: > 100 µM
GI50 [10]: > 100 µM
TGI [10]: > 100 µM
GI50 [11]: 30.7 µM
TGI [11]: > 100 µM
GI50 [12]: > 100 µM
TGI [12]: > 100 µM
GI50 [13]: > 100 µM
TGI [13]: > 100 µM
GI50 [14]: > 100 µM
TGI [14]: > 100 µM
GI50 [15]: 2.93 µM
TGI [15]: > 100 µM
GI50 [16]: > 100 µM
TGI [16]: > 100 µM
GI50 [17]: 32.2 µM
TGI [17]: > 100 µM
GI50 [18]: > 100 µM
TGI [18]: > 100 µM
GI50 [19]: 55.3 µM
TGI [19]: > 100 µM
GI50 [20]: > 100 µM
TGI [20]: > 100 µM
GI50 [21]: 93.1 µM
TGI [21]: > 100 µM
GI50 [22]: > 100 µM
TGI [22]: > 100 µM
GI50 [23]: > 100 µM
TGI [23]: > 100 µM
GI50 [24]: > 100 µM
TGI [24]: > 100 µM
GI50 [25]: > 100 µM
TGI [25]: > 100 µM
GI50 [26]: > 100 µM
TGI [26]: > 100 µM
GI50 [27]: > 100 µM
TGI [27]: > 100 µM
